Test results published in ChEMBL document CHEMBL4840336, “Discovery, Optimization, and Structure-Activity Relationship Study of Novel and Potent RSK4 Inhibitors as Promising Agents for the Treatment of Esophageal Squamous Cell Carcinoma” (J Med Chem, 2021).
Calls of active or inactive are those of the source. The calls are words filed in the database; no cut-off is given here.

Assays:
[1] = target: T1, Ribosomal protein S6 kinase alpha-3 (Homo sapiens, UniProt P51812); assay: Inhibition of full length recombinant His-tagged human RSK2 expressed in baculovirus expression system using biotin-labelled AGAGRSRHSSYPAGT-OH as substrate in presence of ATP
[2] = target: T2, Ribosomal protein S6 kinase alpha-2 (Homo sapiens, UniProt Q15349); assay: Inhibition of full length recombinant GST-tagged human RSK3 expressed in insect cell using biotin-labelled AGAGRSRHSSYPAGT-OH as substrate in presence of ATP
[3] = target: T3, Ribosomal protein S6 kinase alpha-1 (Homo sapiens, UniProt Q15418); assay: Inhibition of full length recombinant His-tagged human RSK1 expressed in baculovirus expression system using biotin-labelled AGAGRSRHSSYPAGT-OH as substrate in presence of ATP
[4] = test system: TE-10; assay: Antitumor activity against human TE-10 cells xenografed in nude mouse assessed as tumor growth inhibition at 50 mg/kg, ip administered for 20 consecutive days by caliper method relative to control; assay type: functional; settings: TE-10, ip, 480 h, time 20 day, read-out: TGI
[5] = Toxicity in nude mouse xenografted with human TE-10 cells assessed as morphological changes in liver at 25 to 50 mg/kg, ip administered for 20 consecutive days by hematoxylin-eosin staining based analysis; assay type: organism-based; settings: in vivo, 480 h, dose 25-50 mg/kg, time 20 day
[6] = Toxicity in nude mouse xenografted with human TE-10 cells assessed as morphological changes in kidney at 25 to 50 mg/kg, ip administered for 20 consecutive days by hematoxylin-eosin staining based analysis; assay type: organism-based; settings: in vivo, 480 h, dose 25-50 mg/kg, time 20 day
[7] = Volume of distribution at steady state in iv dosed Sprague-Dawley rat; assay type: ADME, organism-based; settings: in vivo, read-out: Vdss
[8] = target: T3, Ribosomal protein S6 kinase alpha-1; assay: Inhibition of RSK1 in human TE-10 cells assessed as suppression of P27KIP1 phosphorylation at 1 to 10 uM measured after 24 hrs by Western blot analysis; assay type: cell-based; settings: dose 1-10 µM
[9] = target: T2, Ribosomal protein S6 kinase alpha-2; assay: Inhibition of RSK3 in human TE-10 cells assessed as suppression of HistoneH3 phosphorylation at residue 35 at 1 to 10 uM measured after 24 hrs by Western blot analysis; assay type: cell-based; settings: dose 1-10 µM
[10] = target: T3, Ribosomal protein S6 kinase alpha-1; assay: Inhibition of RSK1 in human TE-10 cells assessed as suppression of EIF4B phosphorylation at 1 to 10 uM measured after 24 hrs by Western blot analysis; assay type: cell-based; settings: dose 1-10 µM
[11] = Toxicity in nude mouse xenografted with human TE-10 cells assessed as morphological changes in lung at 25 to 50 mg/kg, ip administered for 20 consecutive days by hematoxylin-eosin staining based analysis; assay type: organism-based; settings: in vivo, 480 h, dose 25-50 mg/kg, time 20 day
[12] = Half life in iv dosed Sprague-Dawley rat; assay type: ADME, organism-based; settings: in vivo
[13] = target: T2, Ribosomal protein S6 kinase alpha-2; assay: Inhibition of RSK3 in human TE-10 cells assessed as suppression of HistoneH3 phosphorylation at residue 34 at 1 to 10 uM measured after 24 hrs by Western blot analysis; assay type: cell-based; settings: dose 1-10 µM
[14] = Toxicity in nude mouse xenografted with human TE-10 cells assessed as effect on body weight loss at 25 to 50 mg/kg, ip administered for 20 consecutive days; assay type: organism-based; settings: in vivo, 480 h, dose 25-50 mg/kg, time 20 day
[15] = target: T1, Ribosomal protein S6 kinase alpha-3; assay: Inhibition of RSK2 (unknown origin) at 100 nM relative to control
[16] = target: T3, Ribosomal protein S6 kinase alpha-1; assay: Inhibition of RSK1 (unknown origin) at 100 nM relative to control
[17] = Clearance in iv dosed Sprague-Dawley rat; assay type: ADME, organism-based; settings: in vivo
[18] = target: T1, Ribosomal protein S6 kinase alpha-3; assay: Inhibition of RSK2 in human TE-10 cells assessed as suppression of HSP27 at residue 32 phosphorylation at 1 to 10 uM measured after 24 hrs by Western blot analysis; assay type: cell-based; settings: dose 1-10 µM
[19] = test system: TE-10; assay: Antiproliferative activity against human TE-10 cells assessed as inhibition of cell proliferation measured up to 48 hrs by CCK-8 assay; assay type: functional, cell-based
[20] = test system: TE-10; assay: Antitumor activity against human TE-10 cells xenografed in nude mouse assessed as tumor growth inhibition at 25 mg/kg, ip administered for 20 consecutive days by caliper method relative to control; assay type: functional; settings: TE-10, ip, 480 h, time 20 day, read-out: TGI
[21] = test system: Mus musculus; assay: In vivo inhibition of RSK4 in nude mouse xenografted with human TE-10 cells assessed as suppression of RPS6 phosphorylation at 25 to 50 mg/kg, ip administered for 20 consecutive days; assay type: functional, organism-based; settings: dose lower […], dose upper 50.0 mg/kg, time 20.0 day
[22] = Toxicity in nude mouse xenografted with human TE-10 cells assessed as effect on organ damage at 25 to 50 mg/kg, ip administered for 20 consecutive days; assay type: organism-based; settings: in vivo, 480 h, dose 25-50 mg/kg, time 20 day
[23] = target: T2, Ribosomal protein S6 kinase alpha-2; assay: Inhibition of RSK3 in human TE-10 cells assessed as suppression of c-fos phosphorylation at 1 to 10 uM measured after 24 hrs by Western blot analysis; assay type: cell-based; settings: dose 1-10 µM
[24] = test system: TE-10; assay: Inhibition of cell invasion in human TE-10 cells measured after 24 hrs by Giemsa staining based transwell invasion assay; assay type: functional; settings: TE-10, 24 h
[25] = Toxicity in nude mouse xenografted with human TE-10 cells assessed as morphological changes in heart at 25 to 50 mg/kg, ip administered for 20 consecutive days by hematoxylin-eosin staining based analysis; assay type: organism-based; settings: in vivo, 480 h, dose 25-50 mg/kg, time 20 day
[26] = target: T1, Ribosomal protein S6 kinase alpha-3; assay: Inhibition of RSK2 in human TE-10 cells assessed as suppression of creb-phosphorylation at 1 to 10 uM measured after 24 hrs by Western blot analysis; assay type: cell-based; settings: dose 1-10 µM
[27] = target: T1, Ribosomal protein S6 kinase alpha-3; assay: Inhibition of RSK2 in human TE-10 cells assessed as suppression of HSP27 at residue 33 phosphorylation at 1 to 10 uM measured after 24 hrs by Western blot analysis; assay type: cell-based; settings: dose 1-10 µM
[28] = target: T2, Ribosomal protein S6 kinase alpha-2; assay: Inhibition of RSK3 (unknown origin) at 100 nM relative to control
[29] = test system: Mus musculus; assay: In vivo inhibition of RSK4 in nude mouse xenografted with human TE-10 cells assessed as suppression of GSK3beta phosphorylation at 25 to 50 mg/kg, ip administered for 20 consecutive days; assay type: functional, organism-based; settings: dose lower […], dose upper 50.0 mg/kg, time 20.0 day

T1 sequence (P51812 whole entry): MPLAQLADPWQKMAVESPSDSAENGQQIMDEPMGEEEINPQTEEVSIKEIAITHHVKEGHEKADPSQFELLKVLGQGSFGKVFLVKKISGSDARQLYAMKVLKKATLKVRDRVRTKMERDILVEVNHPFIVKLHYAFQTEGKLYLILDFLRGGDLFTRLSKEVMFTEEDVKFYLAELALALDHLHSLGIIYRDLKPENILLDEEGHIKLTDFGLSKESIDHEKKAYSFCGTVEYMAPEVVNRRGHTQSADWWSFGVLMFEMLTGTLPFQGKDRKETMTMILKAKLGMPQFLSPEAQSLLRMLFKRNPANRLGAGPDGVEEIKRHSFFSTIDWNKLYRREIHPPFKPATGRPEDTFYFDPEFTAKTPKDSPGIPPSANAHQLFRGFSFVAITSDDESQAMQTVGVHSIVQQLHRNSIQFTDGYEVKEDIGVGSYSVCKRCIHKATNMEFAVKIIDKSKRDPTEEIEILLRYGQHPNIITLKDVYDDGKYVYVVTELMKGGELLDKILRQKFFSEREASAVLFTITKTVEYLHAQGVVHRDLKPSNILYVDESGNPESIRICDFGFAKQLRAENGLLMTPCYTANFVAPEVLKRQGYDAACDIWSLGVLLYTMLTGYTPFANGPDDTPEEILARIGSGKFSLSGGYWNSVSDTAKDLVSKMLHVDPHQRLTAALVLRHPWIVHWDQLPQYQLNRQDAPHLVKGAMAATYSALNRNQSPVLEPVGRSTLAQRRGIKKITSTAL
T2 sequence (Q15349 whole entry): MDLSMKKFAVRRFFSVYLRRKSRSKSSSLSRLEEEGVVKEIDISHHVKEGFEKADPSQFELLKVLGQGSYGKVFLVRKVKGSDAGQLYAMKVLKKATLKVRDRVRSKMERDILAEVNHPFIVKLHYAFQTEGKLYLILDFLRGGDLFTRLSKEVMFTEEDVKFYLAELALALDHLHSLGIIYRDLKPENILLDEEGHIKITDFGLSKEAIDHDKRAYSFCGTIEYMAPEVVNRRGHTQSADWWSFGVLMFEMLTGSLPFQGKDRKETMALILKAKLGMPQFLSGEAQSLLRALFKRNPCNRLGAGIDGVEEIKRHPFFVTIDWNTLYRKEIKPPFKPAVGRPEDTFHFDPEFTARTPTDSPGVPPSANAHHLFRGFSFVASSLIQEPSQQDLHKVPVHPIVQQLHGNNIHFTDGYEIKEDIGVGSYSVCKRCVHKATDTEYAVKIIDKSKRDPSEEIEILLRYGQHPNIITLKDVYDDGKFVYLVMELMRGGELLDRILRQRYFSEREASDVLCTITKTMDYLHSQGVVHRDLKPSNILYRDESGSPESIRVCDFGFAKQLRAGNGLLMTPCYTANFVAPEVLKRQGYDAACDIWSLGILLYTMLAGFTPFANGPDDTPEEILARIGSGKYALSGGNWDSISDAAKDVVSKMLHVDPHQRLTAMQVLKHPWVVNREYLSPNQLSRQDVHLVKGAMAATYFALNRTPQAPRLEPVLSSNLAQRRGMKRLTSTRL
T3 sequence (Q15418 whole entry): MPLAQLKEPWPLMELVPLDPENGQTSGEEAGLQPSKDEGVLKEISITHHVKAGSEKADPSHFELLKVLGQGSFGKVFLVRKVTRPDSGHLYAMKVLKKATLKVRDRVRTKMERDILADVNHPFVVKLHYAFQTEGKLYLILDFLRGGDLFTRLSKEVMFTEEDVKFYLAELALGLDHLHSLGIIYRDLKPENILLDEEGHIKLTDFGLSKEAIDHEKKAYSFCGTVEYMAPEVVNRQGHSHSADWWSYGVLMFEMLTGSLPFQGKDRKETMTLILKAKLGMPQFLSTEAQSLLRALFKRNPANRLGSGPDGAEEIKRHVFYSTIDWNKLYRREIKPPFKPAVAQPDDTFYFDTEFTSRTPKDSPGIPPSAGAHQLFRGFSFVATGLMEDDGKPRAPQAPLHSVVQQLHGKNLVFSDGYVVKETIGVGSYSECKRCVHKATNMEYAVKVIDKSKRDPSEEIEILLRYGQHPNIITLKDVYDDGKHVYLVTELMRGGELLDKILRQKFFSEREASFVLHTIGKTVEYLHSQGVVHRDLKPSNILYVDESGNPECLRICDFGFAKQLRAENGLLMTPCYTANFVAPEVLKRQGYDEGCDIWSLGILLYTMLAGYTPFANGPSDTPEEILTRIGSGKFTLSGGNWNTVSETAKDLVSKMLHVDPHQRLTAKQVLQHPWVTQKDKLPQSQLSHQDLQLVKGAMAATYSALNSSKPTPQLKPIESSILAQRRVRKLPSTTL

Structure (SMILES): Oc1c(F)cc(-c2cnccc2-c2ccc(N3CCOCC3)cc2)cc1F
- IC50 [1]: 6 nM
- IC50 [2]: 13 nM
- IC50 [3]: 5 nM

Structure (SMILES): CC(C)CCN1c2nc(Nc3cc(F)c(O)c(F)c3)ncc2N(C)C(=O)C1C (centres undefined)
- inhibition in vivo at 50 mg/kg [4]: 41.6%

Structure (SMILES): CN1CCN(c2ccc(-c3ccncc3-c3cc(F)c(O)c(F)c3)cc2)CC1
- IC50 [1]: 4 nM
- IC50 [2]: 4 nM
- IC50 [3]: 6 nM

Structure (SMILES): CC(C)C1OC(=O)N(C2CCCC2)c2nc(Nc3cc(F)c(O)c(F)c3)ncc21 (centres undefined)
- Activity [5]: Non-Toxic
- Activity [6]: Non-Toxic
- Vd [7]: 1.28 L/kg
- inhibition [8]: inactive
- inhibition [9]: inactive
- inhibition [10]: inactive
- Activity [11]: Non-Toxic
- half-life [12]: 55.2 min
- inhibition [13]: inactive
- Activity [14]: Non-Toxic
- inhibition [15]: > 90%
- inhibition [16]: > 90%
- clearance [17]: 67.5 mL/min/kg
- inhibition [18]: inactive
- IC50 ([19]; TE-10, 48 h): 570 nM
- inhibition ([19]; time hrs <=48): Dose-Dependent Effect
- inhibition in vivo at 25 mg/kg [20]: 73.4%
- inhibition [21]: inactive
- Activity [22]: Non-Toxic
- inhibition [23]: inactive
- IC50 [24]: 983 nM
- Activity [25]: Non-Toxic
- inhibition [26]: inactive
- inhibition [27]: inactive
- inhibition in vivo at 50 mg/kg [4]: 48.7%
- inhibition [28]: > 90%
- inhibition [29]: inactive
